Source: PubChem BioAssay AID1224902

Tested on: PC3 prostate cancer viability, PrestoBlue fluorescence
Assay: growth inhibition of PC3 cells, dose response, mTOR inhibitor project (AID 1224902)

- EC50: 37 nM
SMILES: CCOC(Cn1nc(-c2ccc3oc(N)nc3c2)c2c(N)ncnc21)OCC
